According to PubChem BioAssay AID493240 (Broad Institute, 2011):

Tested on: SK-MEL-5 viability, ATP luminescence (CellTiter-Glo), 24 h
Experiment: SK-MEL-5 parental cell viability loss, dose response, orthogonal assay for MITF inhibitor project, CellTiter-Glo, cherry-picked, set 3 (AID 493240)

Point of comparison: `COC(=O)c1c(NC(=O)c2nc3ccccc3s2)sc2c1CC(C)(C)NC2(C)C`, AC50 22.1 µM. Against it:
- COc1ccc(-c2nn(-c3ccccc3)cc2/C=N/N=C(N)N)cc1OC — within 1.5-fold, 18 µM
- O=C(/C=C/c1ccc(Cl)c([N+](=O)[O-])c1)c1ccc(O)cc1 — within 1.5-fold, 27.3 µM
- O=[N+]([O-])c1ccc(/C=N/n2cnc3ccccc32)s1 — within 1.5-fold, 17.9 µM
- O=C(CCl)Nc1ccc(-c2ccccc2)cc1 — within 1.5-fold, 21.9 µM
- Cc1ccc(-c2cn(-c3ccc(SC(F)F)cc3)c3[n+]2CCC3)cc1 — within 1.5-fold, 28 µM
- Oc1c(CN2CCCCC2)cc(COCc2ccccc2)c2cccnc12 — within 1.5-fold, 16.9 µM
- O=C(Nc1ccc(Cl)c(S(=O)(=O)N2CCOCC2)c1)c1ccc(OCC2CCCO2)cc1 (stereo not drawn) — 2.4-fold lower, 9.27 µM
- O=C1Nc2ccc(Br)cc2/C1=C/C(=O)c1ccc2c(c1)OCO2 — within 1.5-fold, 32.6 µM
- CC(=O)N1CCc2c(sc(NC(=O)c3ccc([N+](=O)[O-])o3)c2C#N)C1 — within 1.5-fold, 17.2 µM
- N=c1n(CC(=O)c2ccc(Br)cc2)c2ccccc2n1Cc1ccccc1 — within 1.5-fold, 18.1 µM
- O=C1C(Nc2ccccc2)=C(N2CCCCC2)C(=O)c2ccccc21 — 1.7-fold lower, 12.7 µM
- CC1=CC2/C=C(\C)CCC(O)C(O)/C=C/C(=O)C23C(=O)NC(CC(C)C)C3C1C (stereo not drawn) — within 1.5-fold, 15.9 µM
- COc1ccc(CCn2c(=S)[nH]c3cc(C(=O)NCc4ccco4)ccc3c2=O)cc1OC — within 1.5-fold, 22.8 µM
- CCOC(=O)CCc1ccc(NC(=O)/C=C/c2ccc([N+](=O)[O-])o2)cc1 — within 1.5-fold, 28.4 µM
- CC(=O)c1c(C)oc2c1C(=O)c1ccccc1C2=O — 2.9-fold lower, 7.62 µM
- CN(C)CCNC(=O)/C(=C/c1ccc(-c2ccc(Cl)cc2Cl)o1)NC(=O)c1ccccc1 — within 1.5-fold, 19.4 µM
- CCN1CCN(CCCNC(=O)c2ccc3c(c2)NC(=O)/C(=C\c2cccc(C)c2)S3)CC1 — within 1.5-fold, 20.3 µM
- CCN1CCN(c2ccc(Nc3ccnc4ccccc34)cc2)CC1 — within 1.5-fold, 23.8 µM
- CC(C)C1CC(CCNCc2ccc(N(C)C)cc2)(c2ccccc2)CCO1 (stereo not drawn) — within 1.5-fold, 21.9 µM
- CCCCN(C)CC(O)Cn1cc(/C=C/C(=O)c2cccs2)c2ccccc21 (stereo not drawn) — within 1.5-fold, 18.8 µM
- COc1cc(SC)ccc1C(=O)Nc1nc(C)cs1 — within 1.5-fold, 28.4 µM
- CCOC(=O)c1c(C)oc2c(F)c(F)c(F)c(F)c2c1=O — within 1.5-fold, 22.7 µM
- CC1(C)Cc2ccccc2C2=NNC(=O)C2=N1 — 2.6-fold lower, 8.54 µM
- CCN1/C(=C/c2cc[n+](C)cc2)C=Cc2cc(C)ccc21 — within 1.5-fold, 25.7 µM
- CC(C)=NOc1cc(NC(=O)CCl)cc([N+](=O)[O-])c1 — within 1.5-fold, 17.4 µM
- C=CCNC1=C(Cl)C(=O)c2ccccc2C1=O — 2.9-fold lower, 7.68 µM
- Cc1ccc2sc(N(CCCN(C)C)C(=O)c3ccc(S(=O)(=O)N(C)C4CCCCC4)cc3)nc2c1C — within 1.5-fold, 26.7 µM
- COC(=O)C1=C(C)N(Cc2ccccc2)C(=NCCc2cccnc2)N[C@H]1c1ccc(Br)cc1 — within 1.5-fold, 19.2 µM
- Cc1cc(C)c2sc(N(CCCN(C)C)C(=O)COc3ccc(Cl)cc3)nc2c1 — within 1.5-fold, 24.7 µM
- Cc1ccc(-c2c[n+](Cc3ccc(Cl)c(Cl)c3)c3n2CCC3)cc1 — within 1.5-fold, 15.3 µM
- Cc1ccc(C(=O)N/N=C\c2ccc([N+](=O)[O-])s2)cn1 — 1.5-fold higher, 33.9 µM
- O=C(CCl)N1c2ccccc2SCC1c1ccccc1 (stereo not drawn) — within 1.5-fold, 21.3 µM
- COc1ccccc1NS(=O)(=O)c1cccc(C(=O)N/N=C/c2ccc([N+](=O)[O-])o2)c1 — within 1.5-fold, 17.3 µM
- Cc1c(OCC(=O)NC2CC(C)(C)NC(C)(C)C2)ccc2c1oc(=O)c1ccccc12 — within 1.5-fold, 23.2 µM
- CCn1c(/C=C/Nc2ccccc2)[n+](CC)c2cc(Cl)c(Cl)cc21 — within 1.5-fold, 28.7 µM
- COc1ccc(C(=O)/C=C/C(=O)N(CC(=O)NC2CCCCC2)Cc2ccccc2)c(O)c1 — 1.7-fold lower, 12.9 µM
- CCCC(=O)N1CCN(c2ccc(NC(=O)c3ccc([N+](=O)[O-])o3)cc2)CC1 — within 1.5-fold, 24.2 µM
- Cc1cc2oc3ccc(NCCC4CCCN4C)cc3c(=O)c2cc1C (stereo not drawn) — within 1.5-fold, 17.6 µM
- CC1CCC(C(C)C)C(OC(=O)Cn2c(-c3ccc(Cl)cc3)[n+](C)c3ccccc32)C1 (stereo not drawn) — 2.1-fold lower, 10.4 µM
- N#CCc1ccc(NC(=O)/C=C/c2ccc([N+](=O)[O-])o2)cc1 — within 1.5-fold, 31.2 µM
- Cc1[nH]nc2nc(SCC(=O)NCCC3=CCCCC3)n(-c3ccc(Br)cc3)c(=N)c12 — within 1.5-fold, 21.5 µM
- Cc1cc(NC(=O)c2cncc(Br)c2)ccc1NC(=O)c1cc2ccccc2o1 — within 1.5-fold, 21.3 µM
- CC1=C(CC(=O)c2ccccc2)C(=O)c2ccccc2C1=O — 2.9-fold lower, 7.67 µM
- Cc1ccc(-n2cc(CNCCCn3ccnc3C)c(-c3ccc(F)cc3)n2)cc1 — within 1.5-fold, 17.6 µM
- CC(=O)Nc1ccc(Nc2c3ccccc3nc3ccccc23)cc1 — within 1.5-fold, 16.6 µM
- Cc1ccc(NC(=O)c2ncn(CCCN[C@H](C)c3cccc4ccccc34)n2)cc1C — within 1.5-fold, 25.8 µM
- O=C(Nc1ccccn1)c1ccc(Br)s1 — 11-fold lower, 2.08 µM
- O=C(N/N=C/c1cccc2cccnc12)c1ccccc1O — within 1.5-fold, 32.9 µM
- COc1cccc2sc(N(CCCN(C)C)C(=O)C(c3ccccc3)c3ccccc3)nc12 — within 1.5-fold, 18.3 µM
- O=C(CCl)N(c1ccccc1)C1CCS(=O)(=O)C1 (stereo not drawn) — within 1.5-fold, 29.9 µM
- CCC(C)(C)c1ccc(OCCCC[n+]2ccccc2)c(C(C)(C)CC)c1 — within 1.5-fold, 15.3 µM
- CS(=O)(=O)c1nc(-c2ccc(F)cc2)cc(C(F)(F)F)n1 — within 1.5-fold, 20.3 µM
- Cc1cc(C)c2nc(N3CCC(C(=O)NCCCN4CC(C)CC(C)C4)CC3)sc2c1 (stereo not drawn) — within 1.5-fold, 18.3 µM
- C#CCCc1ccccc1/C=[N+](/C)[O-] — within 1.5-fold, 20.5 µM
- COC1=C(c2ccccc2)C(=O)c2ccccc2C1=O — 2.2-fold lower, 9.91 µM
- COc1cc2c(cc1OC)C(c1ccccc1)N(C(=O)CCl)CC2 (stereo not drawn) — within 1.5-fold, 22.6 µM
- CN(C)CCCNc1nc2sc3c(c2c(=O)n1CCc1ccccc1)CCCCC3 — within 1.5-fold, 19.8 µM
- OC(CNCC(c1ccc(Cl)cc1Cl)c1c[nH]c2ccccc12)c1ccccc1 (stereo not drawn) — within 1.5-fold, 16.8 µM
- Nc1c2c(=O)oc(-c3ccccc3)cc2nn1-c1ccccc1 — 8.9-fold lower, 2.49 µM
- CCOC(=O)c1c(NC(C)=O)sc2c(OCC(O)CNC(C)(C)C)c(Br)ccc12 (stereo not drawn) — within 1.5-fold, 19.1 µM
- CC1CCCC(NCC(O)COC(c2ccc(F)cc2)c2ccc(F)cc2)C1C (stereo not drawn) — within 1.5-fold, 20.9 µM
- CCN1CCCC1CNC(=O)c1ccc2c(c1)NC(=O)/C(=C\c1ccc(C)cc1)S2 (stereo not drawn) — within 1.5-fold, 18.7 µM
- O=C1Nc2cc(C(=O)NCCN3CCCCCC3)ccc2S/C1=C\c1ccccc1 — within 1.5-fold, 19.2 µM
- COc1ccc(-c2cc3c(nn2)-c2ccccc2C3=O)cc1 — within 1.5-fold, 15 µM
- CCS(=O)(=O)c1ccc(N=Nc2ccc(O)c3ncccc23)c(OC)c1 — 1.5-fold higher, 33.5 µM
- O=C1C(Cl)=C(N2CCN(c3ccccc3[N+](=O)[O-])CC2)C(=O)c2ccccc21 — 2-fold lower, 10.8 µM
- Cc1ccccc1NC(=O)Cc1nc(COC(=O)c2ccc(S(C)(=O)=O)c([N+](=O)[O-])c2)cs1 — within 1.5-fold, 27.3 µM
- O=c1c2ccccc2nc(/C=C/c2ccc([N+](=O)[O-])o2)n1-c1ccc(O)cc1 — within 1.5-fold, 14.9 µM
- CS(=O)(=O)c1ccc(C(=O)OCC(=O)NCc2cccs2)cc1[N+](=O)[O-] — within 1.5-fold, 29.7 µM
- CN(C)CCCNC(=O)/C(=C\c1ccc(-c2ccc(Br)cc2)o1)NC(=O)c1ccccc1 — within 1.5-fold, 16.7 µM
- CC1CCC(C(C)C)C(OC(=O)Cn2c(-c3ccc(F)cc3)[n+](C)c3ccccc32)C1 (stereo not drawn) — 2.8-fold lower, 8.02 µM
- COc1ccc(CNCCC(c2ccc(F)cc2)c2ccc(OC)cc2)cc1 (stereo not drawn) — within 1.5-fold, 16.6 µM
- Cc1cc(C(C)(C)C)cc(C)c1Cn1c2[n+](c3ccc(C(F)(F)F)cc31)CCCCC2 — within 1.5-fold, 16 µM
- O=C(Nc1ccc(N2CCN(C(=O)c3ccccc3)CC2)cc1)c1ccc([N+](=O)[O-])o1 — within 1.5-fold, 28.3 µM
- CCOC(=O)c1ccc(NC2=CC(=O)C(=O)c3ccccc32)cc1 — 1.5-fold lower, 14.3 µM
- COc1cc(NC(=O)c2[nH]cnc2C(N)=O)cc(C(=O)Nc2cccc(C(F)(F)F)c2)c1 — within 1.5-fold, 18.2 µM
- CCCCC[n+]1ccn(C2=C([O-])c3ccccc3C(=O)/C2=N\S(=O)(=O)c2ccccc2)c1 — within 1.5-fold, 15.5 µM
- O=C(Cn1ncc(Cl)c(Cl)c1=O)NC1CCCCC1 — within 1.5-fold, 20.5 µM
- CN1CCN(C2=C(NS(=O)(=O)c3ccccc3)C(=O)c3ccccc3C2=O)CC1 — within 1.5-fold, 16.9 µM
- CCN(CC)CCNC(=O)c1ccc(NC(=O)c2cn(-c3ccccc3)nc2-c2cccs2)cc1 — within 1.5-fold, 19.9 µM
- CCC(=O)N1CCN(c2ccc(NC(=O)c3ccc([N+](=O)[O-])o3)cc2Cl)CC1 — within 1.5-fold, 24.8 µM
- O=C(Nc1ccc(Nc2ccncc2)cc1)c1ccc([N+](=O)[O-])cc1 — 1.6-fold higher, 34.3 µM
